“Also recorded” adds a separate entry of the source. Where two headings read alike, the source gives them in different places.
Tests used:
[1] = system: influenza virus B; test: Anti-influenza activity (IC50) against influenza virus B; assay type: cell-based; settings: CAM106 versus rupestonic acid
[2] = Pharmacokinetic study in rats after oral and intravenous administration (UHPLC-MS/MS, non-compartment analysis); assay type: in vivo, Sprague Dawley (SD) rats; settings: for MRT inf: read-out: MRT0–inf; for MRT last: read-out: MRT0–t
Procedure: By using the UHPLC–MS/MS method, we successfully performed accurate quantification of CAM106 in rat plasma, and a non-compartment analysis was used to characterize the pharmacokinetic profiles of CAM106. […] After intravenous administration, T1/2 and Vd were 1.34 ± 0.64 h and 16624.89 ± 8171.11 mL/kg, respectively. […] The mean retention times after oral and intravenous administration were 3.42 ± 0.73 h and 0.63 ± 0.17 h, respectively.
All twelve male Sprague Dawley (SD) rats (weight 200 ± 20 g) were purchased from Xinjiang Medical University (Xinjiang, China). […] For the pharmacokinetic study, twelve rats were randomized into two groups (n = 6). The rats were fasted overnight before the experiment but had free access to water. […] For the oral administration group, CAM106 was intragastrically administered to the rats at a dose of 180 mg/kg. Approximately 0.2 mL of blood was drawn from the ophthalmic veins at 0, 0.25, 0.5, 0.75, 1, 1.5, 2, 4, and 10 h. For intravenous administration, CAM106 was injected into the tail at a dose of 18 mg/kg. About 0.2 mL of blood (from the ophthalmic veins) was drawn at 0, 0.25, 0.5, 0.75, 1, 1.5, 2, 4, and 6 h. After that, 1.5 mL polyethylene tubes containing EDTA were used to collect the plasma. The blood samples were centrifuged at 19,800× g for 7 min after which the supernatant was collected and stored at −80 °C for further analysis.
A 10 µL volume of methanol was added to 100 µL of each plasma sample and vortexed for 3 s (3000 rpm). Then, the mixtures were vortexed for three seconds while receiving 10 µL of internal standard (3000 rpm). A volume of 350 µL acetonitrile was added to 100 µL of each plasma sample. The mixtures were vortexed for 1 min and centrifuged for 7 min at 19800 g. A 100 µL aliquot of the supernatant was stored and 5 µL was subjected to UHPLC–MS/MS analysis.
For the pharmacokinetic study, the chromatographic separation was carried out on an Acquity UHPLC BEH C18 column (2.1 × 75 mm, 1.7 µm) with a filter. The column oven was set at 35 °C. The mobile phase aqueous solution (A, containing 0.1% formic acid) and acetonitrile (B) worked within 0–3.5 min with 60% B. The injection volume was set at 5 µL, with a flow rate of 0.2 mL/min. By using the parallel reaction monitoring (PRM) mode, the CAM106 and internal standard were found. The following adjustments were made to the electrospray ionization (ESI) source parameters: high collision dissociation cell (HCD) energy, 27 eV (for CAM106) and 42 eV (for the IS); capillary temperature, 320 °C; S-lens RF level, 55 V; automatic gain control (AGC) target, 1e^6; maximum IT, 100 ms; spray voltage, 3.2 kV.

[3] = system: rats; test: Observation of toxicity / adverse reactions in rats after dosing; assay type: in vivo, Sprague Dawley (SD) rats
[4] = Stability of CAM106 QC samples (rat plasma, stock solution) under different conditions; assay type: physicochemical; settings: for Accuracy, autosampler stability 0 h / Accuracy, autosampler stability 4 h / Accuracy, autosampler stability 8 h / Accuracy, autosampler stability 12 h: autosampler 10 °C; for Accuracy, room temperature: room temperature 12 h; for Accuracy, stock solution 15 days: stock solution 15 days at −20 °C; for Accuracy, thaw: three freeze–thaw cycles; for Accuracy, long-term stability 1 day / Accuracy, long-term stability 7 days: −80 °C
Procedure: Three quality control (QC) concentrations of CAM106 were used for stability testing under five conditions: in the autosampler for 0, 4, 8, and 12 h; long-term stability at −80 °C for 1 and 7 days; stock solution for 15 days at −20 °C; at room temperature for 12 h; and three freeze–thaw cycles.
The stability tests were conducted with rat plasma containing CAM106 through the analysis of 3 replicates at 10.64, 106.38, and 638.30 ng/mL. This typically comprises short-term stability (room temperature), long-term stability (−80 °C), post-preparation stability (autosampler, 10 °C), and freeze–thaw cycle stability (room temper and −80 °C).

[5] = Water solubility; assay type: physicochemical
[6] = system: H3N2; design: method as in PMID 22625417; settings: read-out: IC50 for H3N2 virus; cited from earlier work
[7] = system: H1N1; design: method as in PMID 22625417; settings: read-out: IC50 for H1N1 virus; cited from earlier work
[8] = system: influenza virus B; settings: cited from earlier work
[9] = system: Kun Ming mice; design: method as in earlier work; settings: 25 mg/kg; cited from earlier work
[10] = Metabolite identification in rat plasma, urine and feces by high-resolution mass spectrometry; settings: √ found, × not found
[11] = in vivo
[12] = IV 18.0 mg/kg, n = 6, mean ± SD
[13] = PO 180.0 mg/kg, n = 6, mean ± SD
[14] = male, Sprague Dawley, rat, plasma, IV 18.0 mg/kg, n = 6, mean ± SD
[15] = male, Sprague Dawley, rat, plasma, PO 180.0 mg/kg, n = 6, mean ± SD

SMILES: C=C(C(=O)NCc1cc(-c2ccc(F)cc2)no1)C1CCC(C)C2CC(=O)C(C)=C2C1 (stereo not drawn) [CAM106]
- IC50 against influenza virus B relative to rupestonic acid [1]: about 35 fold
- AUC0–inf [2, 12]: 1287.93 ± 549.25 h·(ng/mL)
- AUC0–t [2, 12]: 1255.32 ± 544.72 h·(ng/mL)
- AUC0–inf [2, 13]: 294.19 ± 221.69 h·(ng/mL)
- AUC0–t [2, 13]: 200.94 ± 87.45 h·(ng/mL)
- Vd [2, 13]: 4,605,807.05 ± 2,044,928.13 mL/kg
- clearance [2, 14]: 277 mL/min/kg
- half-life [2, 14]: 1.34 ± 0.64 h
- MRT inf [2, 14]: 0.79 ± 0.23 h
- MRT last [2, 14]: 0.63 ± 0.17 h
- Vd ([2]; male, Sprague Dawley, rat, plasma, IV 18.0 mg/kg, n = 6, mean ± SD, read-out: Vd): 27.4 L/kg
- Cmax [2, 15]: 61 ± 30.8 ng/mL
- Tmax [2, 15]: 1.21 ± 0.51 h
- half-life [2, 15]: 4.56 ± 2.31 h
- MRT inf [2, 15]: 6.69 ± 3.57 h
- MRT last [2, 15]: 3.42 ± 0.73 h
- bioavailability ([2]; male, Sprague Dawley, rat, plasma, oral, 180 mg/kg, PO 180.0 mg/kg versus IV 18.0 mg/kg, read-out: F (%), absolute (oral) bioavailability): ~1.6%
- Cmax ([2]; male, Sprague-Dawley, rat, plasma, IV 18.0 mg/kg, n = 6, mean ± SD): 2310 ± 1000 ng/mL
- Signs of toxicity ([3]; 180 mg/kg oral and 18 mg/kg intravenous for 3 days): no signs of toxicity were observed
- Adverse reactions or acute toxicity ([3]; oral 180 mg/kg or intravenous 18 mg/kg): No adverse reactions or acute toxicity were observed
- Accuracy, autosampler stability 0 h ([4]; 10.64 ng/mL): 95.02
- Accuracy, autosampler stability 4 h ([4]; 10.64 ng/mL): 93.52
- Accuracy, autosampler stability 8 h ([4]; 10.64 ng/mL): 91.35
- Accuracy, autosampler stability 12 h ([4]; 10.64 ng/mL): 100.38
- Accuracy, room temperature ([4]; 10.64 ng/mL): 96.71
- Accuracy, stock solution 15 days ([4]; 10.64 ng/mL): 91.26
- Accuracy, thaw ([4]; 10.64 ng/mL): 97.21
- Accuracy, long-term stability 1 day ([4]; 10.64 ng/mL): 97.93
- Accuracy, long-term stability 7 days ([4]; 10.64 ng/mL): 103.20
- Accuracy, autosampler stability 0 h ([4]; 106.38 ng/mL): 106.05
- Accuracy, autosampler stability 4 h ([4]; 106.38 ng/mL): 101.96
- Accuracy, autosampler stability 8 h ([4]; 106.38 ng/mL): 101.46
- Accuracy, autosampler stability 12 h ([4]; 106.38 ng/mL): 98.88
- Accuracy, room temperature ([4]; 106.38 ng/mL): 101.12
- Accuracy, stock solution 15 days ([4]; 106.38 ng/mL): 108.39
- Accuracy, thaw ([4]; 106.38 ng/mL): 106.13
- Accuracy, long-term stability 1 day ([4]; 106.38 ng/mL): 104.02
- Accuracy, long-term stability 7 days ([4]; 106.38 ng/mL): 94.03
- Accuracy, autosampler stability 0 h ([4]; 638.30 ng/mL): 100.00
- Accuracy, autosampler stability 4 h ([4]; 638.30 ng/mL): 102.58
- Accuracy, autosampler stability 8 h ([4]; 638.30 ng/mL): 97.09
- Accuracy, autosampler stability 12 h ([4]; 638.30 ng/mL): 96.48
- Accuracy, room temperature ([4]; 638.30 ng/mL): 102.21
- Accuracy, stock solution 15 days ([4]; 638.30 ng/mL): 95.27
- Accuracy, thaw ([4]; 638.30 ng/mL): 100.09
- Accuracy, long-term stability 1 day ([4]; 638.30 ng/mL): 103.73
- Accuracy, long-term stability 7 days ([4]; 638.30 ng/mL): 90.36
- Solubility in water [5]: poorly soluble in water; also recorded: weak water solubility
- IC50 [6]: 1090 nM
- IC50 [7]: 970 nM
- IC50 ([8]; read-out: IC50 for B virus): 3250 nM
- Toxic response [9]: no toxic response
- Detected in rat feces (F) ([10]; rat feces 0–48 h after administration of CAM106): √
- Detected in rat urine (U) ([10]; rat urine 0–48 h after administration of CAM106): √

SMILES: C=C(C(N)=O)C1CCC(C)C2CC(=O)C(C)=C2C1 (stereo not drawn) [M1]
- Detected in rat feces (F) [11]: √
- Detected in rat urine (U) [11]: √

SMILES: C=C(C(=O)N(C)C)C1CCC(C)C2CC(=O)C(C)=C2C1 (stereo not drawn) [M4]
- Detected in rat feces (F) [11]: √
- Detected in rat urine (U) [11]: ×

SMILES: C=C(C(=O)NCc1cc(-c2ccc(F)cc2)no1)C1CC[C@H](C(=O)O)C2CC(=O)C(C)=C2C1 (stereo partly drawn) [M5]
- Detected in rat feces (F) [11]: ×
- Detected in rat urine (U) [11]: √

SMILES: C=C(C(=O)NCC1=CC(c2ccc(F)cc2)NO1)C1CCC(C)C2CC(=O)C(C)=C2C1 (stereo not drawn) [M8]
- Detected in rat feces (F) [11]: √
- Detected in rat urine (U) [11]: ×

SMILES: C=C(C(=O)O)[C@H]1CC[C@H](C)[C@@H]2CC(=O)C(C)=C2C1 [rupestonic acid, reference compound]
- IC50 ([8]; read-out: IC50 for virus B): 116000 nM
